Assay [1] in a line: Antioxidant activity by DPPH. It is filed as biochemical. As for the experimental part: Tests were performed for the antioxidant activity by DPPH of the dried extract of macela-do-campo obtained by spray dryer. […] Trolox (a derivative of vitamin E sold by Hoffman LaRoche) was used as a standard of the aforesaid test and has its IC50 of antioxidant activity obtained with 0.005 mg/ml. Therefore, it can be concluded that the dried extract of macela-do-campo has extremely high antioxidant effectiveness, only 4 times less than Trolox.

For assay [2], the system named is smooth muscle of guinea pig corpus cavernosum. To be noted: cited from earlier work.
A further assay addresses PDE 5A (Homo sapiens, UniProt O76074). The conditions noted are these: cited from earlier work.
The subject of a further assay is Propionibacterium acnes. The assay is described as follows: Minimum Inhibitory Concentration (MIC), microplate dilution. In kind it is cell-based. The conditions noted are these: Cutibacterium acnes, anaerobiosis, 35° C., 96 hours, mg/ml of sample. As for the experimental part:
Tests were carried out for evaluating the minimum inhibitory concentrations of 3 batches of the dried extract of inflorescences of macela-do-campo produced in accordance with the process of the present invention against Propionibacterium acnes.
The procedure used for this test is the following:
Preparation of inoculum: the microorganism to be used in testing was replicated to a glass flask containing 10 ml of sterilized culture medium broth (TSB); • the flaks were incubated at 35° C.+/−2° C. for 24 hours; • the above procedure was repeated for 2 consecutive days; • 100 microliters of TSB broth were distributed in a microplate with the exception of column 1; • column 1 was inoculated with 200 microliters of the sample to be tested previously prepared and solubilized; • dilutions were carried out by transferring 100 microliters of column 1 to column 2 and 100 microliters of column 2 to column 3 and thus successively until column 10. […] The plate in which Propionibacterium acnes was inoculated was incubated under anaerobosis at 35° C.+/−2° C. for 96 hours; • after the incubation period the reading was carried out, thus observing the turbidity of the wells; • the samples were weighed and diluted in the vehicle ethanol 96° GL/distilled water (1:1) according to the weights and volumes below: […]

The test system of the next assay is P. acnes. Description: Bioautography of Propionibacterium acnes (HPTLC separation, inoculum overlay). It is filed as cell-based. The conditions noted are these: incubation 72 hours, revealed with TTC. As for the experimental part: Bioautographic trials were conducted to determine the classes of the compounds present in the extract of inflorescence of Achyrocline satureioides that perform the anti-bacterial activity against Propionibacterium acnes. The bioautography consists of the chromatographic separation of the compounds by HPTLC and the subsequent application of the inoculation to the culture medium over the chromatographic plate.

In the next assay the test system is PDE3. The conditions noted are these: cited from earlier work.
For the next assay, the system named is PDE4. The conditions noted are these: cited from earlier work.
Assay [3] deals with smooth muscle of guinea pig tracheas. To be noted: guinea pig tracheas precontracted with histamine, carbachol, KCl and forskolin; cited from earlier work.

Values after ≈ are worked out from the molar mass of the structure shown.

Take `Cc1c(C)c2c(c(C)c1O)CCC(C)(C(=O)O)O2` (centres unmarked) [Trolox]: the “IC50 of the antioxidant activity” value in assay [1] was 5 µg/mL.
The term IC50 denotes the concentration that gives 50% inhibition. In general, MIC refers to the smallest concentration in the dilution series that meets the test's criterion for growth inhibition. Lower therefore signals inhibition by little substance. As to `O=c1c(O)c(-c2ccc(O)c(O)c2)oc2cc(O)cc(O)c12` [quercetin], in assay [2], the “relaxant activity in smooth muscle of corpus cavernosum” value is “show the same relaxant activity”. For the same molecule, the IC50 at PDE 5A is 1.9 µM. The MIC with Propionibacterium acnes is 36.4 µg/mL (≈ 120 µM). Further, the “anti-microbial activity in bioautography (inhibition halos)” value in the assay on P. acnes is given as “main ingredients responsible for the anti-microbial activity”.
Regarding `COc1c(-c2ccc(O)c(O)c2)oc2cc(O)cc(O)c2c1=O` [3-O-methylquercetin], the “relaxant activity in smooth muscle of corpus cavernosum” value in assay [2] is on record as “show the same relaxant activity”. The IC50 is 1.6 µM in the assay on PDE3, 28.5 µM in the assay with PDE4 and 86.9 µM on PDE 5A. In the assay on P. acnes, the “anti-microbial activity in bioautography (inhibition halos)” value is on record as “main ingredients responsible for the anti-microbial activity”. The “relaxation of smooth muscle of tracheas” value in assay [3] was “capable of provoking the relaxation of the smooth muscle”.

The values are drawn from patent publication US20130012577A1, “PROCESS TO OBTAIN A STANDARDIZED EXTRACT OF QUERCETIN AND 3-O-METHYLQUERCETIN FROM INFLORESCENCES OF MACELA-DO-CAMPO, A COSMETIC, PHARMACEUTICAL AND VETERINARY COMPOSITION CONTAINING EXTRACT OF MACELA-DO-CAMPO, THE USE OF THIS EXTRACT AND THE METHOD OF APPLICATION OF THE AFORESAID EXTRACT” (priority 2009, published 2013).
